Results as given in patent publication US8957074B2 (Novartis AG, priority 2010, dated 2015).
Where two headings read alike, the source gives them in different places.

Tests used:
[1] = system: phosphorylation of pRb at the Ser780 site in JeKo-1 mantle cell lymphoma cells; assay: CDK4 cellular assay: ELISA of pRb phosphorylation at Ser780 in JeKo-1 cells; assay type: cell-based
Excerpt: Cell-based assay measuring phosphorylation levels of pRb at the Ser780 site using an enzyme-linked immunosorbent assay (ELISA) method (Table 6). JeKo-1, a mantle-cell lymphoma cell line, was selected for use in this assay due to its known translocation and subsequent overexpression of cyclin D1. [Ref: Amin, H. M.; McDonnell, T. J.; Medeiros, L. J.; Rassidakis, G. Z.; Leventaki, V.; O'Connor, S. L.; Keating, M. J.; Lai, R. Characterization of 4 mantle cell lymphoma cell lines—Establishment of an in vitro study model. Arch. Pathol. Lab.
Cells were allowed to adhere overnight. […] 10 μL of the dilution were then transferred to the cell culture plate, resulting in a final concentration range of 10 μM to 2 nM. The incubation was carried out at 37° C. with 5% CO2. All compounds were tested in triplicates at each concentration. […] The plates were placed at 4° C. with vigorous shaking for 5 min to lyse the cells. The resulting lysates contained approximately 1 μg/μL of protein.
Plates were incubated overnight at 4° C. with rocking. […] After shaking for 10 minutes, the Superblock solution was replaced with fresh Superblock and plates were incubated on a shaker for an additional 50 min. After blocking, 30 μL of JeKo-1 cell lysate, containing approximately 10 μg total protein, were added to wells in triplicate. […] For all incubation steps, plates were covered with Uniseal plate sealers. […] Next, 50 μL of a 1:2500 dilution of donkey-anti-rabbit HRP (Promega catalog no. W401B) in PBS/10% Superblock were added, and plates were incubated for 30 min at room temperature on a shaker. Plates were again washed as described above. […] After incubation, 50 μL 2 M sulfuric acid were added to plates to top the reaction, and absorbance was determined on a SpectraMax (Molecular Devices, Sunnydale, Calif.) within 15 minutes at 450 nm. All washes were performed using a Bio-Tek plate washer.
The Total Rb ELISA kit (Invitrogen catalog no. KH00011) was used to determine the levels of total pRb. This kit uses wells precoated with a proprietary total pRb antibody for capture. All reagents listed, with the exception of cell lysate, were included in the kit. The nature of the antibodies used for capture and detection was labeled as proprietary and not disclosed. 10 μg of cell lysate was loaded into the wells and volume adjusted to 50 μL with standard dilution buffer. Plates were sealed with film included in the kit and incubated for 2 h at room temperature on a shaker. Plates are then manually washed three times with 250 μL wash buffer. 50 μL of proprietary primary antibody (pre-conjugated to biotin) was added to wells and incubated for 1 h at room temperature on a shaker. Then plates were again washed as noted above. The secondary antibody (HRP pre-conjugated to Streptavidin) was diluted 1:100 in Streptavidin-HRP diluent buffer and 50 μL was added to each well. Plates were then incubated for 30 min. Afterwards, plates were washed four times with buffer as outlined above. Finally, 50 μL stabilized Chromogen was added per well and plates were incubated for 15 min, at which point 50 μL of stop solution was added. Plates were then read on a Spectramax at 450 nm.
The total pRb levels were then used to adjust the p-pRb % inhibition values to account for any loss of signal due to the absence of the pRb protein itself, and the IC50 values obtained from the adjusted % inhibitions represent normalized cellular p-pRb IC50.

CDK1/cyclin B = CDK1/cyclin B (Homo sapiens (Human), UniProt P06493); assay: CDK1/cyclin B enzymatic activity assay (IMAP-FP); assay type: biochemical
Excerpt: CDK1/Cyclin B Enzymatic Activity Assay
A 384-well microtiter IMAP-FP™ (Molecular Devices Trade Mark Technology) endpoint assay was used for CDK1/cyclin B kinase activity measurements. The same assay was used for IC50 determination of small molecule inhibitors.

CDK4/cyclin D1 = CDK4/cyclin D1 (Homo sapiens (Human), UniProt P11802); assay: CDK4/cyclin D1 enzymatic activity assay (TR-FRET, phosphorylation of pRb at Ser780); assay type: biochemical
Method: CDK4/Cyclin D1 Enzymatic Activity Assay
An assay for monitoring CDK4/cyclin D1-catalyzed phosphorylation of pRb at the Ser780 site was performed using TR-FRET in a 384-well format, and was used for IC50 determination and kinetic analysis. […] 3 μM ATP was added last to initiate the reaction. The reaction was quenched with 10 μL of 240 mM EDTA-Na (pH 8.0) after 60 min incubation at 22° C.
Human CDK4/cyclin D1 was expressed in Sf21 cells via baculovirus infection.

[2] = Homo sapiens, JeKo-1 cells, p-pRb % inhibition adjusted with total pRb levels, read-out: Normalized cellular ppRb inhibition IC50
[3] = Homo sapiens, JeKo-1 cells, p-pRb Ser780 ELISA, non-normalized, read-out: Cellular ppRb inhibition IC50
[4] = […] CDK1/cyclin B, 100 nM Tamra Histone-H1 peptide, 20 μM ATP, 120 min at room temperature, read-out: Biochemical CDK1 enzyme IC50
[5] = 0.3 nM CDK4/cyclin D1, 150 nM biotin-pRb (773-924), 3 μM ATP, 60 min at 22° C., read-out: Biochemical CDK4 enzyme IC50
[6] = Homo sapiens, JeKo-1, JeKo-1 cells, p-pRb % inhibition adjusted with total pRb levels, read-out: Normalized cellular ppRb inhibition IC50
[7] = Homo sapiens, JeKo-1, JeKo-1 cells, p-pRb Ser780 ELISA, non-normalized, read-out: Cellular ppRb inhibition IC50

Sequence of CDK1/cyclin B (P06493 whole entry, species assumed): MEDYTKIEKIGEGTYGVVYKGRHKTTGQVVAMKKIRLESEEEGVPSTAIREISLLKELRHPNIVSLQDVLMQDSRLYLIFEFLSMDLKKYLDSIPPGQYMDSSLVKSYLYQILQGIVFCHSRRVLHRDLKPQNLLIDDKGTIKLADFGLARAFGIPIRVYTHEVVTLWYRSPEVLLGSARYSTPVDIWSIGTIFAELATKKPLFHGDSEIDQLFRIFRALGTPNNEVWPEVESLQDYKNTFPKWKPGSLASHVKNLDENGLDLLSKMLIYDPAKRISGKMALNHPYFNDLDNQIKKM
Sequence of CDK1/cyclin B (P14635 whole entry partner, species assumed): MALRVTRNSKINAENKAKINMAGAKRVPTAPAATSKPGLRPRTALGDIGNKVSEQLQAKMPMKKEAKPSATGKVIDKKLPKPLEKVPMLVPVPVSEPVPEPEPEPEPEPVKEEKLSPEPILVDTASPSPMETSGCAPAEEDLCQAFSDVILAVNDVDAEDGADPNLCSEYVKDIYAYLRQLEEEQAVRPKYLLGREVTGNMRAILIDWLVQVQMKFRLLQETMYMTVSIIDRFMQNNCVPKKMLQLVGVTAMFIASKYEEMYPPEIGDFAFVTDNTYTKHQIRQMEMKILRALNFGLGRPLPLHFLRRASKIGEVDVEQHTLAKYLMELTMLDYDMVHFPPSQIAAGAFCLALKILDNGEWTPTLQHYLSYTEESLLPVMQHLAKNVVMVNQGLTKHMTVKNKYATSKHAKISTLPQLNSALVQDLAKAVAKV
Sequence of CDK4/cyclin D1 (P11802 whole entry): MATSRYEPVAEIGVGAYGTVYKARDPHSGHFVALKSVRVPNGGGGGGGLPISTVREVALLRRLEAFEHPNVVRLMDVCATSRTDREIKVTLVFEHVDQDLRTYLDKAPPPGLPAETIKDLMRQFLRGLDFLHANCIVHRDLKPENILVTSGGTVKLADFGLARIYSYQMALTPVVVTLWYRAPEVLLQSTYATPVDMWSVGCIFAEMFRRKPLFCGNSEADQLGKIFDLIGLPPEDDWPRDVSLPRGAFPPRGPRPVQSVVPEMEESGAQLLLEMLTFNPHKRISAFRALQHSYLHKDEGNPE
Sequence of CDK4/cyclin D1 (P24385 whole entry partner): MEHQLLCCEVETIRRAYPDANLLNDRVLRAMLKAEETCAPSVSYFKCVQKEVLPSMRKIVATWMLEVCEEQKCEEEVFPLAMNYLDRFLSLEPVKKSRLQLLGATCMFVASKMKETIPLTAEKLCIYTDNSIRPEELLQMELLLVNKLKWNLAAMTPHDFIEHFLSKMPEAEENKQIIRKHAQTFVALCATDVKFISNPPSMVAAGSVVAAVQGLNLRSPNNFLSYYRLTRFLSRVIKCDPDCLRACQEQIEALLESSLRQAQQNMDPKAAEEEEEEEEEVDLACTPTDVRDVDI

Row | SMILES | IC50 [1, 2] [µM] | IC50 [1, 3] [µM] | IC50 (CDK1/cyclin B; [4]) [µM] | IC50 (CDK4/cyclin D1; [5]) [µM] | IC50 [1, 6] [µM] | IC50 [1, 7] [µM] | IC50 (CDK1/cyclin B) [µM] | IC50 (CDK1/cyclin B; 0.25 nM CDK1/cyclin B, 100 nM Tamra Histone-H1 peptide, 20 μM ATP, 120 min at room temperature, read-out: Biochemical CDK1 enzyme IC50) [µM] | IC50 ([1]; JeKo-1 cells, p-pRb % inhibition adjusted with total pRb levels, read-out: Normalized cellular ppRb inhibition IC50) [µM] | IC50 ([1]; JeKo-1 cells, p-pRb Ser780 ELISA, non-normalized, read-out: Cellular ppRb inhibition IC50) [µM] | IC50 (CDK4/cyclin D1) [µM]
1 | CN(C)C(=O)c1cc2cnc(Nc3ccc(N4CC5(CC4=O)CC4CCC(C5)N4)cn3)nc2n1C1CCCOC1 (stereo not shown) [Example 120, N,N-dimethyl-2-(5-(5′-oxo-8-azaspiro[bicyclo[3.2.1]octane-3,3′-pyrrolidine]-1′-yl)pyridin-2-ylamino)-7-(tetrahydro-2H-pyran-3-yl)-7H-pyrrolo[2,3-d]pyrimidine-6-carboxamide] | 1.03 | 0.677 | > 15 | 0.066 | – | – | – | – | – | – | –
2 | CC(=O)NCC(=O)N1[C@@H]2CC[C@H]1CN(c1ccc(Nc3ncc4cc(C(=O)N(C)C)n(C5CCCC5)c4n3)nc1)C(=O)C2 [Example 138, 2-(5-((1S,6R)-9-(2-acetamidoacetyl)-4-oxo-3,9-diazabicyclo[4.2.1]nonan-3-yl)pyridin-2-ylamino)-7-cyclopentyl-N,N-dimethyl-7H-pyrrolo[2,3-d]pyrimidine-6-carboxamide] | – | 1.6 | > 15 | 0.106 | – | – | – | – | – | – | –
3 | CN(C)C(=O)c1cc2cnc(Nc3ccc(C(=O)N4[C@@H]5CNC[C@H]4COC5)cn3)nc2n1C1CCCC1 [Example 40, 2-(5-((1R,5S)-3-oxa-7,9-diazabicyclo[3.3.1]nonane-9-carbonyl)pyridin-2-ylamino)-7-cyclopentyl-N,N-dimethyl-7H-pyrrolo[2,3-d]pyrimidine-6-carboxamide] | 0.051 to 0.222 | 0.04 to 0.099 | > 15 | 0.036 to 0.052 | – | – | – | – | – | – | –
4 | CN(C)C(=O)c1cc2cnc(Nc3ccc(C(=O)N4CC5CCC(C4)N5)cn3)nc2n1C1C[C@H]2CC[C@@H]1C2 (stereo partly drawn) [Example 76, 7-(1R,2R,4S)-Bicyclo[2.2.1]hept-2-yl-2-[5-(3,8-diaza-bicyclo[3.2.1]octane-3-carbonyl)-pyridin-2-ylamino]-7H-pyrrolo[2,3-d]pyrimidine-6-carboxylic acid dimethylamide] | – | – | – | 0.021 | 0.216 | 0.16 | > 15 | – | – | – | –
5 | CN(C)C(=O)c1cc2cnc(Nc3ccc(N4C[C@H]5CC[C@@H](CC4=O)N5)cn3)nc2n1-c1ccccc1 [Example 130, 2-[5-((1R,6S)-4-oxo-3,9-diaza-bicyclo[4.2.1]non-3-yl)-pyridin-2-ylamino]-7-phenyl-7H-pyrrolo[2,3-d]pyrimidine-6-carboxylic acid dimethylamide] | – | – | > 15 | 0.009 | 0.022 to 0.045 | 0.019 to 0.026 | – | – | – | – | –
6 | CN(C)C(=O)c1cc2cnc(Nc3ccc(N4CC5CC4CN5)cn3)nc2n1C1CCCC1 (stereo not shown) [Example 111, 7-Cyclopentyl-2-[5-(2,5-diaza-bicyclo[2.2.1]hept-2-yl)-pyridin-2-ylamino]-7H-pyrrolo[2,3-d]pyrimidine-6-carboxylic acid dimethylamide] | 0.452 | 0.371 | 9.17 | 0.041 | – | – | – | – | – | – | –
7 | CN(C)C(=O)c1cc2cnc(Nc3ccc(C(=O)N4C[C@H]5CNC[C@@H](C4)C5O)cn3)nc2n1C1CCCC1 (stereo partly drawn) [Example 1, 7-Cyclopentyl-2-(5-((1R,5S)-9-hydroxy-3,7-diazabicyclo[3.3.1]nonane-3-carbonyl)pyridin-2-ylamino)-N,N-dimethyl-7H-pyrrolo[2,3-d]pyrimidine-6-carboxamide] | 0.538 | 0.364 | > 15 | 0.017 | – | – | – | – | – | – | –
8 | CN(C)C(=O)c1cc2cnc(Nc3ccc(C(=O)N4CC5CCC(C4)C5N(C)C)cn3)nc2n1C1CCCC1 (stereo not shown) [Example 34, 7-cyclopentyl-2-(5-(8-(dimethylamino)-3-azabicyclo[3.2.1]octane-3-carbonyl)pyridin-2-ylamino)-N,N-dimethyl-7H-pyrrolo[2,3-d]pyrimidine-6-carboxamide] | 0.14 | 0.075 | > 15 | 0.022 | – | – | – | – | – | – | –
9 | CN(C)C(=O)c1cc2cnc(Nc3ccc(N4CCC5(CCCN5)C4=O)cn3)nc2n1C1CCCOC1 (stereo not shown) [Example 121, N,N-dimethyl-2-(5-(6-oxo-1,7-diazaspiro[4.4]nonan-7-yl)pyridin-2-ylamino)-7-(tetrahydro-2H-pyran-3-yl)-7H-pyrrolo[2,3-d]pyrimidine-6-carboxamide] | 0.199 to 0.791 | 0.184 to 0.489 | > 15 | 0.079 to 0.107 | – | – | – | – | – | – | –
10 | CN1C[C@@H]2CN(c3ccc(Nc4ncc5cc(C(=O)N(C)C)n(C6CCCC6)c5n4)nc3)C(=O)[C@@H]2C1 (stereo in doubt) [Example 95, 7-cyclopentyl-N,N-dimethyl-2-(5-((3aR,6aS)-5-methyl-1-oxohexahydropyrrolo[3,4-c]pyrrol-2(1H)-yl)pyridin-2-ylamino)-7H-pyrrolo[2,3-d]pyrimidine-6-carboxamide] | – | – | – | 0.007 | 0.021 to 0.065 | 0.004 to 0.02 | – | 14 to 14.3 | – | – | –
11 | CN(C)C(=O)c1cc2cnc(Nc3ccc(N4CCC5(CCNCC5)C4=O)cn3)nc2n1C1CCCC1 [Example 117, 7-cyclopentyl-N,N-dimethyl-2-(5-(1-oxo-2,8-diazaspiro[4.5]decan-2-yl)pyridin-2-ylamino)-7H-pyrrolo[2,3-d]pyrimidine-6-carboxamide] | – | – | > 15 | 0.007 to 0.009 | – | – | – | – | 0.051 to 0.082 | 0.04 to 0.067 | –
12 | CN(C)C(=O)c1cc2cnc(Nc3ccc(C(=O)N4CC5CCC(C4)N5)cn3)nc2n1C1CCCC1 [Example 18, 7-Cyclopentyl-2-[5-(3,8-diaza-bicyclo[3.2.1]octane-3-carbonyl)-pyridin-2-ylamino]-7H-pyrrolo[2,3-d]pyrimidine-6-carboxylic acid dimethylamide] | – | – | 13.2 | – | 0.026 to 0.09 | 0.012 to 0.037 | – | – | – | – | 0.008 to 0.024
13 | CN(C)C(=O)c1cc2cnc(Nc3ccc(N4C[C@H]5CNC[C@H]5CC4=O)cn3)nc2n1C1CCCCCC1 (stereo in doubt) [Example 88, 7-cycloheptyl-N,N-dimethyl-2-(5-(cis-6-oxotetrahydro-1H-pyrrolo[3,4-c]pyridin-5(6H, 7H, 7a H)-yl)pyridin-2-ylamino)-7H-pyrrolo[2,3-d]pyrimidine-6-carboxamide] | – | – | 2.51 | 0.005 | 0.011 | 0.007 | – | – | – | – | –
14 | CN(C)C(=O)c1cc2cnc(Nc3ccc(N4C[C@]5(CCCNCC5)OC4=O)cn3)nc2n1C1CCCC1 [Example 106, 7-Cyclopentyl-2-[5-((R)-2-oxo-1-oxa-3,8-diaza-spiro[4.6]undec-3-yl)-pyridin-2-ylamino]-7H-pyrrolo[2,3-d]pyrimidine-6-carboxylic acid dimethylamide] | 0.114 | 0.07 | > 15 | 0.015 | – | – | – | – | – | – | –
